Experiments:
[1] = molecular target: T1, mitochondrial complex I (NADH: ubiquinone oxidoreductase) (Mus musculus, UniProt P03888+Q91WD5+Q9DC70); assay: NADH: ubiquinone oxidoreductase activity; assay type: biochemical
[2] = molecular target: T1, mitochondrial complex I (NADH: ubiquinone oxidoreductase); assay: NADH: ubiquinone oxidoreductase activity; assay type: cell-based; details: read-out: % inhibition at 20 μM
[3] = molecular target: mitochondrial complex II (succinate: ubiquinone oxidoreductase) (Mus musculus, UniProt Q8K2B3+Q9CQA3+Q9CXV1+Q9CZB0); assay: succinate: ubiquinone oxidoreductase activity, DCPIP reduction; assay type: biochemical
Chain of mitochondrial complex II (succinate: ubiquinone oxidoreductase) (Q8K2B3 43-664): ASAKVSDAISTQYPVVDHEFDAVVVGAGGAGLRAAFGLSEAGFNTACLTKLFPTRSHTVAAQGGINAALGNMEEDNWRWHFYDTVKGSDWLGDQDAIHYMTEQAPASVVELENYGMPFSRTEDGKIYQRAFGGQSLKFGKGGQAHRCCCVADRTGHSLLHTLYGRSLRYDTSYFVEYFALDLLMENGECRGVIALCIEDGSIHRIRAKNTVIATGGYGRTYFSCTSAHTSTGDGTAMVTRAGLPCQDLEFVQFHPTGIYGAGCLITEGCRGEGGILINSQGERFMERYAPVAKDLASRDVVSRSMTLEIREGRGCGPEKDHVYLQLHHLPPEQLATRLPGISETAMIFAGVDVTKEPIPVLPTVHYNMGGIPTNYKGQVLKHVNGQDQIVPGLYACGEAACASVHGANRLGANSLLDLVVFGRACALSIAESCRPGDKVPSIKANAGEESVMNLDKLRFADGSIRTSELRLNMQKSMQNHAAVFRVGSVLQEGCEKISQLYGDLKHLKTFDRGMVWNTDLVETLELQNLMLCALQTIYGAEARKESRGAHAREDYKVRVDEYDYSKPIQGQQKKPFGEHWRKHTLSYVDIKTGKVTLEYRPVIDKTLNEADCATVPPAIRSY
Chain of mitochondrial complex II (succinate: ubiquinone oxidoreductase) (Q9CQA3 31-282): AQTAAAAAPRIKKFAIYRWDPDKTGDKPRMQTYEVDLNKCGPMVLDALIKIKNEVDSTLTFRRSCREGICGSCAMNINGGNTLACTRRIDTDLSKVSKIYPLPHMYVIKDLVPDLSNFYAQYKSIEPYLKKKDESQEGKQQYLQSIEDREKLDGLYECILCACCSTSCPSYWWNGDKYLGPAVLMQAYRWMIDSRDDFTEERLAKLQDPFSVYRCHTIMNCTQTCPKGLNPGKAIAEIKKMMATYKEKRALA
Chain of mitochondrial complex II (succinate: ubiquinone oxidoreductase) (Q9CZB0 30-169): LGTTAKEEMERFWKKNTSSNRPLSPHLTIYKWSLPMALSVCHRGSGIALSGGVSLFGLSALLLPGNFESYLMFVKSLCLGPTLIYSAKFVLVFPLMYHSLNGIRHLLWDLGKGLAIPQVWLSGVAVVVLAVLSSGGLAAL
Chain of mitochondrial complex II (succinate: ubiquinone oxidoreductase) (Q9CXV1 57-159): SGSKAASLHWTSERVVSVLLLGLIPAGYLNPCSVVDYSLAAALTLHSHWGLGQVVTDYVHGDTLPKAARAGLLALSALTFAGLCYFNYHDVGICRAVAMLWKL

## O=C1Nc2ccc(Cl)cc2[C@@](C#CC2CC2)(C(F)(F)F)O1 [EFV, efavirenz]
[1]
  IC50: ~30 µM

## C=C(C)[C@H]1Cc2c(ccc3c2O[C@@H]2COc4cc(OC)c(OC)cc4[C@@H]2C3=O)O1 [ROT, rotenone]
[2]
  inhibition at 20 µM: ~50%

## NN [HzN, hydrazine]
[3]
  IC50: ~30 µM

Reference: paper PMC4297936 (Redox Biology, 2014)
